# Values of other authors as cited in patent publication US20110052727A1, “Anti Influenza Nutritional Supplements” (priority 2009, published 2011).
# Tested on: lung-adapted PR-8 virus
# Details: mouse, in vivo
smiles,measurement,value
"O=C/C=C/c1ccccc1 [CA, trans-cinnamaldehyde]",virus yield reduction in bronchoalveolar lavage fluid,1 log
